Earlier results as cited in patent US11399559B2, “Nutritional products having improved lipophilic solubility and bioavailability in an easily mixable form” (ABBOTT LABORATORIES, priority 2015, dated 2022).
Where two headings read alike, the source gives them in different places.

Cc1c(C)c2c(c(C)c1O)CC[C@@](C)(CCC[C@H](C)CCC[C@H](C)CCCC(C)C)O2 [RRR-alpha-tocopherol]
Biological activity relative to all-rac-alpha-tocopherol (accepted nutritional guidelines): 1.36 times | Biological activity relative to all-rac-alpha-tocopherol (recent studies): about 2 times
